Where two headings read alike, the source gives them in different places. Blank lines part the entries; values can stand above or below the molecule they belong to.
Biological target: T1, COX-1 (Sus scrofa, UniProt A0A287ANF9)
T1 construct: A platelet suspension obtained from pig's blood is preincubated with the test substance; endogenous in cells; host or cells: platelets from pig's blood
Experiment: In-vitro test for COX-1 inhibition: fluorimetric quantification of malonaldehyde (MDA) in A23187-activated pig platelet suspension
Format: cell-based
Description: In-vitro Test Procedure for the Determination of COX-1 Inhibition
The inhibition of the cyclooxygenase pathway is carried out by fluorimetric quantification of malonaldehyde (MA). This condenses in the acidic medium with twice the molar amount of thiobarbituric acid to give a red pigment dye, which has a fluorescence at λExcitation: 533 nm, λEmission: 550 nm.
A platelet suspension obtained from pig's blood is preincubated with the test substance for 10 min at 37° C. The concentration of the suspension should be 8×10^8 cells/ml. The arachidonic acid cascade is then activated by addition of the antibiotic calcium ionophore A23187 ([…]). After a further 10 min at 37° C., the reaction is stopped using a trichloroacetic acid solution. The samples are centrifuged and the supernatant is incubated with thiobarbituric acid for 30 min at 70° C. After cooling (30 min at room temperature), the samples are measured fluorimetrically at 533/550 nm and the IC50 values of the test compounds are determined therefrom by means of a calibration curve.

[1] = Table 7, arylamides, pig platelets, read-out: MDA IC50
[2] = Table 7, arylamides, pig platelets, read-out: MDA pIC50 (converted)
[3] = Table 9, alkylamides, pig platelets, read-out: MDA IC50
[4] = tables 1 to 17, read-out: IC50 values (inhibition of cyclooxygenase-1)
[5] = Table 9, alkylamides, pig platelets, read-out: MDA pIC50 (converted)
[6] = Table 11, heteroaryl- and naphthylamides, pig platelets, read-out: MDA pIC50 (converted)
[7] = Table 10, alkylsulfonamides, pig platelets, read-out: MDA pIC50 (converted)
[8] = Table 12, naphthylsulfonamides, pig platelets, read-out: MDA pIC50 (converted)
[9] = Table 5, heteroarylmethyl sulfides, pig platelets, read-out: MDA pIC50 (converted)
[10] = Table 5, heteroarylmethyl sulfides, pig platelets, read-out: MDA IC50
[11] = Table 14, sulfones and their sulfide analogs, pig platelets, read-out: MDA IC50

T1 sequence (A0A287ANF9 25-600): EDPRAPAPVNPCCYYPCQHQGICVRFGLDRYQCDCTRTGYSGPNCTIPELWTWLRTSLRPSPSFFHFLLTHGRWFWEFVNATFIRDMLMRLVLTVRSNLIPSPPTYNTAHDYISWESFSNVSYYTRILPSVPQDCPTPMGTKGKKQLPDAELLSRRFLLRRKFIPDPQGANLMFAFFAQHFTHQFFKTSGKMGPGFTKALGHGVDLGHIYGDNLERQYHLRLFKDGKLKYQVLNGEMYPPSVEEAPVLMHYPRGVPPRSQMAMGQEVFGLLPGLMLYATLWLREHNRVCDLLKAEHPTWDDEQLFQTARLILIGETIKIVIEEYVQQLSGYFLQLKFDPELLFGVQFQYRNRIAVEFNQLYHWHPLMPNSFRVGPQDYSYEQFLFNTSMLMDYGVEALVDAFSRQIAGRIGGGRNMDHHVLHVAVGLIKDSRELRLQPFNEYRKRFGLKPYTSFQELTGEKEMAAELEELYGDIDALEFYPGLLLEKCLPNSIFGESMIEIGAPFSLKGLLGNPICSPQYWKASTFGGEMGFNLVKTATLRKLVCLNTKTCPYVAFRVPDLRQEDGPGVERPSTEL

Compound: COc1ccc(-c2nc(SCCNC(=O)c3ccc(C(C)(C)C)cc3)[nH]c2-c2ccc(OC)cc2)cc1 [Compound T48, N^1-{2-[4,5-Bis(4-methoxyphenyl)-1H-imidazol-2-ylsufanyl]ethyl}-4-(tert-butyl)benzamide]
- IC50 [1]: 82 nM

Compound: COc1ccc(-c2nc(SCCNC(=O)C(C)C)[nH]c2-c2ccc(OC)cc2)cc1 [Compound T51, N^1-{2-[4,5-Bis(4-methoxyphenyl)-1H-imidazol-2-ylsufanyl]ethyl}-2-methylpropanamide]
- IC50 [3]: 8.8 nM
- IC50 [4]: ~1 nM

Compound: COc1ccc(-c2nc(SCCNC(=O)C(C)(C)C)[nH]c2-c2ccc(OC)cc2)cc1 [Compound T52, N^1-{2-[4,5-Bis(4-methoxyphenyl)-1H-imidazol-2-ylsulfanyl]ethyl}-2,2-dimethylpropanamide]
- IC50 [5]: 417 nM

Compound: COc1ccc(-c2nc(SCCNC(=O)c3cccs3)[nH]c2-c2ccc(OC)cc2)cc1 [Compound T54, N^1-{2-[4,5-Bis(4-methoxyphenyl)-1H-imidazol-2-ylsulfanyl]ethyl}thiophene-2-carboxamide]
- IC50 [6]: 100 nM

Compound: COc1ccc(-c2nc(SCCNC(=O)c3cccc4ccccc34)[nH]c2-c2ccc(OC)cc2)cc1 [Compound T55, N^1-{2-[4,5-Bis(4-methoxyphenyl)-1H-imidazol-2-ylsulfanyl]ethyl}-1-naphthamide]
- IC50 (Table 11, heteroaryl- and naphthylamides, pig platelets, read-out: MDA IC50): 560 nM

Compound: CCN(CC)C(=O)NCCSc1nc(-c2ccc(OC)cc2)c(-c2ccc(OC)cc2)[nH]1 [Compound T58, N^1-{2-[4,5-Bis(4-methoxyphenyl)-1H-imidazol-2-ylsulfanyl]ethyl}-N′,N′-diethylurea]
- IC50 (Table 13, urea derivatives, pig platelets, read-out: MDA IC50): 50 nM

Compound: COc1ccc(-c2nc(SCCNC(=O)CCc3ccccc3)[nH]c2-c2ccc(OC)cc2)cc1 [Compound T60, N^1-{2-[4,5-Bis(4-methoxyphenyl)-1H-imidazol-2-ylsulfanyl]ethyl}-3-phenylpropanamide]
- IC50 [3]: 150 nM
- IC50 [5]: 151 nM

Compound: COc1ccc(-c2nc(SCCNC(=O)C=Cc3ccccc3)[nH]c2-c2ccc(OC)cc2)cc1 [Compound T61, N^1-{2-[4,5-Bis(4-methoxyphenyl)-1H-imidazol-2-ylsulfanyl]ethyl}-3-phenylprop-2-enamide]
- IC50 [5]: 182 nM

Compound: COc1ccc(-c2nc(SCCNS(C)(=O)=O)[nH]c2-c2ccc(OC)cc2)cc1 [Compound T63, N^1-{2-[4,5-Bis(4-methoxyphenyl)-1H-imidazol-2-ylsulfanyl]ethyl}-methanesulfonamide]
- IC50 (Table 10, alkylsulfonamides, pig platelets, read-out: MDA IC50): 76 nM

Compound: COc1ccc(-c2nc(SCCNS(=O)(=O)C(C)C)[nH]c2-c2ccc(OC)cc2)cc1 [Compound T65, N^1-{2-[4,5-Bis(4-methoxyphenyl)-1H-imidazol-2-ylsulfanyl]ethyl}-propane-2-sulfonamide]
- IC50 [7]: 10 nM

Compound: COc1ccc(-c2nc(SCCNS(=O)(=O)Cc3ccccc3)[nH]c2-c2ccc(OC)cc2)cc1 [Compound T66, N^1-{2-[4,5-Bis(4-methoxyphenyl)-1H-imidazol-2-ylsulfanyl]ethyl}-phenylmethanesulfonamide]
- IC50 [7]: 100 nM

Compound: COc1ccc(-c2nc(SCc3cccnc3)[nH]c2-c2ccc(OC)cc2)cc1 [Compound T70, 3-[4,5-Bis(4-methoxyphenyl)-1H-imidazol-2-ylsulfanylmethyl]pyridine]
- IC50 [9]: 3.02 nM
- IC50 [4]: ~1 nM

Compound: COc1ccc(-c2nc(SCc3ccncc3)[nH]c2-c2ccc(OC)cc2)cc1 [Compound T71, 4-[4,5-Bis(4-methoxyphenyl)-1H-imidazol-2-ylsulfanylmethyl]pyridine]
- IC50 [9]: 3.02 nM
- IC50 [4]: ~1 nM

Compound: COc1ccc(-c2nc(SCc3ccc4ccccc4n3)[nH]c2-c2ccc(OC)cc2)cc1 [Compound T72, 2-[4,5-Bis(4-methoxyphenyl)-1H-imidazol-2-ylsulfanylmethyl]quinoline]
- IC50 [10]: 90 nM

Compound: COc1ccc(-c2nc(SCc3nc4ccccc4[nH]3)[nH]c2-c2ccc(OC)cc2)cc1 [Compound T73]
- IC50 [9]: 389 nM

Compound: COc1ccc(-c2nc(SCc3ccncc3)n(CC(=O)O)c2-c2ccc(OC)cc2)cc1 [Compound T77, 2-[4,5-Bis(4-methoxyphenyl)-2-(4-pyridylmethylsulfanyl)-1H-imidazol-1-yl]-acetic acid]
- IC50 (Table 6, N1-acetic acid derivatives, pig platelets, read-out: MDA IC50): 720 nM

Compound: CCOC(=O)CSc1nc(-c2ccc(OC)cc2)c(-c2ccc(OC)cc2)[nH]1 [Compound T79, Ethyl 2-[4,5-bis(4-methoxyphenyl)-1H-imidazol-2-ylsufanyl]acetate]
- IC50 (Table 14, sulfones and their sulfide analogs, pig platelets, read-out: MDA pIC50 (converted)): 12 nM

Compound: CCOC(=O)CS(=O)(=O)c1nc(-c2ccc(OC)cc2)c(-c2ccc(OC)cc2)[nH]1 [Compound T80, Ethyl 2-[4,5-bis(4-methoxyphenyl)-1H-imidazol-2-ylsulfonyl]acetate]
- IC50 [11]: 7.5 nM
- IC50 [4]: ~1 nM

Compound: O=C(NCCSc1nc(-c2ccc(Cl)cc2)c(-c2ccc(Cl)cc2)[nH]1)c1ccccc1 [Compound T85, N^1-{2-[4,5-Bis(4-chlorophenyl)-1H-imidazol-2-ylsufanyl]ethyl}benzamide]
- IC50 [1]: 450 nM

Compound: CN(C)C(=O)CSc1nc(-c2ccc(Cl)cc2)c(-c2ccc(Cl)cc2)[nH]1 [Compound T87, N^1N^1-Dimethyl-2-[4,5-bis(4-chlorophenyl)-1H-imidazol-2-ylsulfanyl]-acetamide]
- IC50 (Table 15, N,N-acetamides, pig platelets, read-out: MDA pIC50 (converted)): 1510 nM

Compound: CC(Sc1nc(-c2ccc(Cl)cc2)c(-c2ccc(Cl)cc2)n1C)C(=O)N(C)C (centres unmarked) [Compound T88, 2-[4,5-Bis(4-chlorophenyl)-1-methyl-1H-imidazol-2-ylsufanyl]-1-(di-methylamino)propan-1-one]
- MDA pIC50 (Table 15, N,N-acetamides, pig platelets): 5.28 M
- IC50 (Table 15, N,N-acetamides, pig platelets, read-out: MDA IC50): 5200 nM

Second part, the molecule after the results:

- IC50 [1]: 640 nM
- IC50 [2]: 603 nM
Compound: COc1ccc(-c2nc(SCCNC(=O)c3cc(OC)c(OC)c(OC)c3)[nH]c2-c2ccc(OC)cc2)cc1 [Compound T46, N^1-{2-[4,5-Bis(4-methoxyphenyl)-1H-imidazol-2-ylsufanyl]ethyl}-3,4,5-trimethoxybenzamide]

- IC50 [2]: 141 nM
Compound: COc1ccc(-c2nc(SCCNC(=O)c3ccc(C)cc3)[nH]c2-c2ccc(OC)cc2)cc1 [Compound T47, N^1-{2-[4,5-Bis(4-methoxyphenyl)-1H-imidazol-2-ylsulfanyl]ethyl}4-methylbenzamide]

- IC50 [3]: 47 nM
Compound: CCC(=O)NCCSc1nc(-c2ccc(OC)cc2)c(-c2ccc(OC)cc2)[nH]1 [Compound T50]

- IC50 [6]: 347 nM
Compound: COc1ccc(-c2nc(SCCNC(=O)c3ccco3)[nH]c2-c2ccc(OC)cc2)cc1 [Compound T53, N^1-{2-[4,5-Bis(4-methoxyphenyl)-1H-imidazol-2-ylsulfanyl]ethyl}furan-2-carboxamide]

- IC50 [6]: 39.8 nM
Compound: COc1ccc(-c2nc(SCCNC(=O)c3ccc4ccccc4c3)[nH]c2-c2ccc(OC)cc2)cc1 [Compound T56, N^1-{2-[4,5-Bis(4-methoxyphenyl)-1H-imidazol-2-ylsulfanyl]ethyl}-2-naphthamide]

- IC50 [3]: 54 nM
Compound: COc1ccc(-c2nc(SCCNC(=O)Cc3ccccc3)[nH]c2-c2ccc(OC)cc2)cc1 [Compound T59, N^1-{2-[4,5-Bis(4-methoxyphenyl)-1H-imidazol-2-ylsulfanyl]ethyl}-2-phenylacetamide]

- IC50 [5]: 129 nM
Compound: COc1ccc(-c2nc(SCCNC(=O)C(c3ccccc3)c3ccccc3)[nH]c2-c2ccc(OC)cc2)cc1 [Compound T62, N^1-{2-[4,5-Bis(4-methoxyphenyl)-1H-imidazol-2-ylsulfanyl]ethyl}-2,2-diphenylacetamide]

- IC50 [7]: 38.9 nM
Compound: CCS(=O)(=O)NCCSc1nc(-c2ccc(OC)cc2)c(-c2ccc(OC)cc2)[nH]1 [Compound T64, N^1-{2-[4,5-Bis(4-methoxyphenyl)-1H-imidazol-2-ylsulfanyl]ethyl}-ethanesulfonamide]

- IC50 [8]: 380 nM
Compound: COc1ccc(-c2nc(SCCNS(=O)(=O)c3cccc4ccccc34)[nH]c2-c2ccc(OC)cc2)cc1 [Compound T67, N^1-{2-[4,5-Bis(4-methoxyphenyl)-1H-imidazol-2-ylsulfanyl]ethyl}-naphthalene-1-sulfonamide]

- IC50 [8]: 129 nM
Compound: COc1ccc(-c2nc(SCCNS(=O)(=O)c3ccc4ccccc4c3)[nH]c2-c2ccc(OC)cc2)cc1 [Compound T68, N^1-{2-[4,5-Bis(4-methoxyphenyl)-1H-imidazol-2-ylsulfanyl]ethyl}-naphthalene-2-sulfonamide]

- IC50 [11]: 81 nM
Compound: COc1ccc(-c2nc(S(=O)(=O)Cc3ccccn3)[nH]c2-c2ccc(OC)cc2)cc1 [Compound T74, 2-[4,5-Bis(4-methoxyphenyl)-1H-imidazol-2-ylsulfonylmethyl]pyridine]

- IC50 [9]: 331 nM
Compound: Clc1ccc(-c2nc(SCc3ccccn3)[nH]c2-c2ccc(Cl)cc2)cc1 [Compound T83, 2-[4,5-Bis(4-chlorophenyl)-1H-imidazol-2-ylsulfanylmethyl]pyridine]

- IC50 [10]: 700 nM
Compound: c1ccc(-c2nc(SCc3ccccn3)[nH]c2-c2ccccc2)cc1 [Compound T91, 2-[4,5-Diphenyl-1H-imidazol-2-ylsulfanylmethyl]pyridine]

— patent US7223781B2 (Beiersdorf AG, priority 2001, dated 2007)
